# Counter-ions that a name gives are not always drawn.
# Test system: not given
# Experiment: not given
# Settings: not given
row,Structure (SMILES),melting point [°C]
1,"CCCCN(CCCC)CCCOc1ccc(-c2nc3c(C)cccn3c2C)cc1 (as salt: HCl) [Example 4, 2-(4-Dibutylaminopropoxyphenyl)-3,8-dimethylimidazo[1,2-a]pyridine]",202 to 204
2,"CCCCN(CCCC)CCCOc1ccc(-c2cn3ccccc3n2)cc1 (as salt: HCl) [Example 1, 2-(4-Dibutylaminopropoxyphenyl)imidazo[1,2-a]pyridine]",179 to 183
3,"CCCCN(CCCC)CCCOc1ccc(C(=O)c2cn3cccc(C)c3n2)cc1 (as salt: HCl) [Example 5, 2-(4-Dibutylaminopropoxybenzoyl)-8-methylimidazo[1,2-a]pyridine]",159 to 161
4,"CCCCN(CCCC)CCCOc1ccc(-c2cn3cccc(C)c3n2)cc1 (as salt: HCl) [Example 2, 2-[4-[3-(Dibutylamino)propoxy]phenyl)-8-methylimidazo[1,2-a]pyridine]",214 to 217

# Target: T1, human histamine H3 receptor (Homo sapiens, UniProt Q9Y5N1)
# T1 construct: expressed in transfected cells; membranes prepared from cell pellets
# T1 sequence (Q9Y5N1 whole entry): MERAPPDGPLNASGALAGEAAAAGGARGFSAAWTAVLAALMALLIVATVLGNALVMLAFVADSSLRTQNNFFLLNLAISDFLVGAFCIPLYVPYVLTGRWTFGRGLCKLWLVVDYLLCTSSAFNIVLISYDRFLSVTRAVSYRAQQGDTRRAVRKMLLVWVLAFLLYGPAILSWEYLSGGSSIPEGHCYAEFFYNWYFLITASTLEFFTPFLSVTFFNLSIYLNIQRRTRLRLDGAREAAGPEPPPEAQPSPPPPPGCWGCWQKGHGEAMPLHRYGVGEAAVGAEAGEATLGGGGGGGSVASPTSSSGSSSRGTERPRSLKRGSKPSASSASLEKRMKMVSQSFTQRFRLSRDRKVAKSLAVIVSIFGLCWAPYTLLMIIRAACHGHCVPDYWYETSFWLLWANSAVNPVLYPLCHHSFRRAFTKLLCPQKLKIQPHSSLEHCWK
# Experiment: [3H]-N-methylhistamine binding
# Settings: membranes of histamine H3 receptor-expressing SK-N-MC cells; 0.8 nM [3H]-N-methylhistamine; 45 minutes at 25° C.; KI=(IC50)/(1+([L]/(KD)), KD 800 pM
# Method: In the present invention receptor binding was determined using the human histamine H3 receptor (See Lovenberg et al Mol. Pharmacol. 1999, 1107). Screening using the human receptor is particularly important for the identification of new therapies for the treatment of human disease. Conventional binding assays for example are determined using rat synaptosomes (Garbarg et al J. Pharmacol. Exp. Ther. 1992, 263, 304), rat cortical membranes (West et al Mol. Pharmacol. 1990, 610), and guinea pig brain (Korte et al Biochem. Biophys. Res. Commun. 1990, 978). Only limited studies have been performed previously using human tissue but these allude to significant differences in the pharmacology of rodent and primate receptors (West et al Eur. J. Pharmacol. 1999, 233).
# A 10 cm tissue culture dish with a confluent monolayer of SK-N-MC cells was split two days prior to transfection. Using sterile technique the media was removed and the cells were detached from the dish by the addition of trypsin. One fifth of the cells were then placed onto a new 10 cm dish. Cells were grown in a 37° C. incubator with 5% CO2 in Minimal Essential Media Eagle with 10% Fetal Bovine Serum. After two days cells were approximately 80% confluent. These were removed from the dish with trypsin and pelleted in a clinical centrifuge. The pellet was then re-suspended in 400 μL complete media and transferred to an electroporation cuvette with a 0.4 cm gap between the electrodes (Bio-Rad #165-2088). One microgram supercoiled H3 receptor cDNA was added to the cells and mixed. The voltage for the electroporation was set at 0.25 kV, the capacitance is set at 960 μF.
# After electroporation the cells were diluted into 10 mL complete media and plated onto four 10 cm dishes. Due to the variability in the efficiency of electroporation, four different concentrations of cells were plated. The ratios used were: 1:20, 1:10, and 1:5, with the remainder of the cells being added to the fourth dish. The cells were allowed to recover for 24 hours before adding the selection media (complete media with 600 μg/ml G418). After 10 days dishes were analyzed for surviving colonies of cells. Dishes with well-isolated colonies were used. Cells from individual colonies were isolated and tested. SK-N-MC cells were used because they give efficient coupling for inhibition of adenylate cyclase. The clones that gave the most robust inhibition of adenylate cyclase in response to histamine were used for further study.
# 1(B) [^3H]-N-methylhistamine Binding
# Cell pellets from histamine H3 receptor-expressing SK-N-MC cells were homogenized in 20 mM TrisHCl/0.5 mM EDTA. Supernatants from a 800 g spin were collected, recentrifuged at 30,000 g for 30 minutes. Pellets were rehomogenized in 50 mM Tris/5 mM EDTA (pH 7.4). Membranes were incubated with 0.8 nM [^3H]-N-methylhistamine plus/minus test compounds for 45 minutes at 25° C. and harvested by rapid filtration over GF/C glass fiber filters (pretreated with 0.3% polyethylenimine) followed by four washes with ice cold buffer. Filters were dried, added to 4 mL scintillation cocktail and then counted on a liquid scintillation counter. Non-specific binding was defined with 10 μM histamine according to Chen and Prusoff, Biochem. Pharmacol. 1973, 22:3099. KI values were calculated based on a KD of 800 pM and a ligand concentration ([L]) of 800 pM according to the formula: KI=(IC50)/(1+([L]/(KD)). KI values are provided in the examples above.
row,Structure (SMILES),Ki [nM]
1,"CCCCN(CCCC)CCCOc1ccc(C(=O)c2cn3ccc(C)cc3n2)cc1 [Example 3, [4-(3-dibutylamino-propoxy)-phenyl]-(7-methyl-imidazo[1,2-a]pyridin-2-yl)-methanone]",70
2,"CCCN(CCC)CCCOc1ccc(-c2cn3cccc(C)c3n2)cc1C [Example 14, 2-(4-Dipropylaminopropoxy-(3-methyl)-phenyl)-8-methylimidazo[1,2-a]pyridine]",14
3,"CN(C)CCCOc1ccc(-c2cn3ccccc3n2)cc1 [Example 9, 2-(4-Dimethylaminopropoxyphenyl)imidazo[1,2-a]pyridine]",119
4,"CCCCN(CCCC)CCCOc1ccc(-c2cn3cccc(C)c3n2)cc1 [Example 2, 2-[4-[3-(Dibutylamino)propoxy]phenyl)-8-methylimidazo[1,2-a]pyridine]",500
5,"Cc1cccn2cc(-c3ccc(OCCN(C(C)C)C(C)C)cc3)nc12 [Example 11, 2-(4-Diisopropylaminoethoxyphenyl)-8-methylimidazo[1,2-a]pyridine]",55
6,"CCCN(CCC)CCCOc1ccc(-c2cn3cccc(C)c3n2)cc1 [Example 7, 2-(4-Dipropylaminopropoxyphenyl)-8-methylimidazo[1,2-a]pyridine]",44
7,"CCN(CC)CCOc1ccc(-c2cn3cccc(C)c3n2)cc1 [Example 10, 2-(4-Diethylaminoethoxyphenyl)-8-methylimidazo[1,2-a]pyridine]",15
8,"CCCCN(CCCC)CCCOc1ccc(-c2nc3c(C)cccn3c2C)cc1 [Example 4, 2-(4-Dibutylaminopropoxyphenyl)-3,8-dimethylimidazo[1,2-a]pyridine]",327
9,"CCCCN(CCCC)CCCOc1ccc(C(=O)c2cn3cccc(C)c3n2)cc1 [Example 5, 2-(4-Dibutylaminopropoxybenzoyl)-8-methylimidazo[1,2-a]pyridine]",500
10,"CCCCCN(CCCCC)CCCOc1ccc(-c2cn3cccc(C)c3n2)cc1 [Example 13, 2-(4-Dipentylaminopropoxyphenyl)-8-methylimidazo[1,2-a]pyridine]",500
11,"Cc1cccn2cc(-c3ccc(OCCCN(C)C)cc3)nc12 [Example 8, 2-(4-Dimethylaminopropoxyphenyl)-8-methylimidazo[1,2-a]pyridine]",14

# From US6489337B1, “Method for treating histamine H3 receptor-mediated disorders with 2- or 3-aryl substituted imidazo[1,2-a] pyridines” (Ortho-McNeil Pharmaceutical, Inc., priority 2000, dated 2002)
